According to article PMC4261083, “An atypical residue in the pore of Varroa destructor GABA-activated RDL receptors affects picrotoxin block and thymol modulation” (Insect Biochemistry and Molecular Biology, 2014):
Numbering of substitutions follows the chain as printed.

What was measured:
Assay in all cases: Picrotoxin inhibition of GABA responses, two electrode voltage clamp in Xenopus oocytes
Format in all cases: cell-based
[1] = molecular target: T1, 4M2 mutant Drosophila RDL receptor (N-7′H, T6′M, A20′S and A21′Q) (Drosophila melanogaster, UniProt P25123, A319S/A320Q/N292H/T305M); settings: 4M2 RDL
T1 construct: expressed in transfected cells; host or cells: Xenopus laevis oocytes injected with cRNA
T1 sequence (P25123 45-606 N292H/T305M/A319S/A320Q): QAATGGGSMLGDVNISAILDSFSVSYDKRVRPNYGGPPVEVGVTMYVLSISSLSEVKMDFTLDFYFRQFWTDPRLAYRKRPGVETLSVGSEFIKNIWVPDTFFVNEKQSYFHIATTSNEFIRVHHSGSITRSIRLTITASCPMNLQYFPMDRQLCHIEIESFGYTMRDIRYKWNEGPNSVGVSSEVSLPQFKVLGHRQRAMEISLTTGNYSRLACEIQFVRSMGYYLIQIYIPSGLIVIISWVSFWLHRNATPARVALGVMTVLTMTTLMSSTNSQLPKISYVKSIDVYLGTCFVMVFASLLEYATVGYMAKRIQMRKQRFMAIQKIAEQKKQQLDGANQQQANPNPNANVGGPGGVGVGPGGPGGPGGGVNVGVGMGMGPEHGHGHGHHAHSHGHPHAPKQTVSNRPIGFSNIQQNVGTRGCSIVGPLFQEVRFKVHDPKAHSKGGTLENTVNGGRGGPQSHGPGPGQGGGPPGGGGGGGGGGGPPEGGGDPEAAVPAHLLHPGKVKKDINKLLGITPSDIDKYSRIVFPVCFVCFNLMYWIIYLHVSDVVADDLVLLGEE
Method: (§1) X. laevis oocyte-positive females were purchased from NASCO (Fort Atkinson, Wisconsin, USA) and maintained according to standard methods. Harvested stage V-VI Xenopus oocytes were washed in four changes of ND96 (96 mM NaCl, 2 mM KCl, 1 mM MgCl2, 1 mM CaCl2, 5 mM HEPES, pH 7.5), de-folliculated in 1.5 mg ml^−1 collagenase Type 1A for approximately 2 h, washed again in four changes of ND96 and stored in ND96 containing 2.5 mM sodium pyruvate, 0.7 mM theophylline and […].
(§2) Drosophila RDL subunit cDNA (kindly gifted from N.Millar) was subcloned into pGEMHE for oocyte expression as previously described ([McGonigle and Lummis, 2010], [Millar et al., 1994]). Site directed mutagenesis was performed with the QuikChange mutagenesis kit (Agilent, La Jolla, CA). cRNA was transcribed in vitro from linearised pGEMHE cDNA template using the mMessage mMachine T7 Transcription kit (Ambion, Austin, Texas, USA). Stage V and VI oocytes were injected with 5 ng cRNA, incubated at 18 °C, and currents recorded 18–24 h post-injection.
(§3) Xenopus oocytes were clamped at −60 mV using an OC-725 amplifier (Warner Instruments, Connecticut, USA), Digidata 1322A and the Strathclyde Electrophysiology Software Package (Department of Physiology and Pharmacology, University of Strathclyde, UK), or using the Roboocyte (MultiChannel Systems). Currents were recorded at 5 kHz and filtered at a frequency of 1 kHz. Micro-electrodes were fabricated from borosilicate glass (GC120TF-10, Harvard Apparatus, Edenbridge, Kent, UK) using a one stage horizontal pull (P-87, Sutter Instrument Company, California, USA) and filled with 3 M KCl. Pipette resistances ranged from 1.0 to 2.0 MΩ. Oocytes were perfused with ND96 at a constant rate of 12 ml min^−1. Drug application was via a simple gravity fed system calibrated to run at the same rate.
(§4) Analysis and curve fitting was performed using Prism v5 (GraphPad Software, San Diego, California, USA). Concentration-response data for each oocyte was normalised to the maximum current for that oocyte. The mean and S.E.M. for a series of oocytes were fitted to the four parameter logistic equation in Prism.

[2] = molecular target: T2, N-7′H mutant Drosophila RDL receptor (Drosophila melanogaster, UniProt P25123, N292H); settings: N-7′H RDL
T2 construct: expressed in transfected cells; host or cells: Xenopus laevis oocytes injected with cRNA
T2 sequence (P25123 45-606 N292H): T1 sequence (P25123 45-606 N292H/T305M/A319S/A320Q) with M261T, S275A, Q276A
Method: as §1, §2, §3, §4

[3] = molecular target: T3, wild type Drosophila RDL receptor (Drosophila melanogaster, UniProt P25123)
T3 construct: expressed in transfected cells; host or cells: Xenopus laevis oocytes injected with cRNA
T3 sequence (P25123 45-606): T1 sequence (P25123 45-606 N292H/T305M/A319S/A320Q) with H248N, M261T, S275A, Q276A
Method: as §1, §2, §3, §4

In the case of picrotoxin, the “Sensitivity to PTX” value ([1]; PTX up to 100 μM) is reported as “insensitive”, the IC50 ([1]; inhibition of GABA responses, read-out: Picrotoxin pIC50 (converted)) is reported as over 100000 nM and the IC50 [2] is reported as 560 nM. For the same substance, the “Picrotoxin pIC50” value [2] was 6.25 ± 0.64, the IC50 [3] was 180 nM and the “Picrotoxin pIC50” value [3] was 6.75 ± 0.22.
